According to patent EP3974434B1, “MACROLIDE DERIVATIVES, PREPARATION METHOD AND APPLICATION THEREOF” (Zhejiang Hisun Pharmaceutical Co., Ltd., priority 2019, dated 2020):

Legend:
[1] = biological target: T1, TRKA(G595R) (Homo sapiens, UniProt P04629, G595R); assay: HTRF KinEASE-TK kinase activity inhibition assay, TRKA(G595R); assay type: biochemical; settings: ATP 7 µM
T1 construct: purchased SignalChem N16-12BG-10
Description: The following method was used to determine the inhibition degrees of the compounds of the present invention on the activity of recombinant human NTRK family kinase in vitro. In this method, HTRF®KinEASE-TK tyrosine kinase kit (article number: 62TK0PEB) of Cisbio company was used, and the principle of the kit was based on time-resolved fluorescence resonance energy transfer (TF-FRET), and the inhibition of the compounds on the activity of the NTRK kinase was reflected by determining a phosphorylation degree of a biotinylated polypeptide substrate mediated by NTRK kinase. For detailed experimental operation, please refer to the kit instruction. Recombinant human wild-type NTRK proteins were purchased from Carna bioscience (the article numbers were TRKA #08-186, TRKB #08-187 and TRKC #08-197 respectively), and recombinant human mutant NTRK proteins were purchased from SignalChem (the article numbers were TRKA G595R #N16-12BG-10, TRKA G667C # N16-12CG-10, and TRKC G623R # N18-12CH-10 respectively).
The experimental methods were operated according to the steps in the kit instruction, and were briefly described as follows: a test compound was first dissolved in DMSO to prepare a storage solution, and then diluted in gradient with a buffer provided in the kit. A final concentration of the test compound in the reaction system ranged from 1,000 nM to 0.004 nM. An ATP Km value concentration of each NTRK protein was determined by using an ATP solution diluted in gradient (Sangon Biotech (Shanghai) Co., Ltd., A600311). According to the Km value obtained, the ATP concentrations in the reaction system were set as 100 µM for TRKA, 10 µM for TRKB, 50 µM for TRKC, 7 µM for TRKA(G595R), 1 µM for TRKA(G667C) and 100 µM for TRKC(G623R). The reaction was carried out in a 384-well microplate. Firstly, the compound and a certain amount of corresponding NTRK protein were added to the wells and incubated for 5 minutes to 10 minutes at room temperature. Then, the ATP solution and the biotinylated polypeptide substrate solution were added to the reaction solution and incubated with shaking at room temperature for 60 minutes. Then, an anti-phosphorylated tyrosine antibody coupled with a europium compound and streptavidin coupled with modified allophycocyanin XL665 were added to the reaction, and continuously incubated with shaking at room temperature for 1 hour. After incubation, fluorescence intensity values of each well at an excitation wavelength of 304 nm, and emission wavelengths of 620 nm and 665 nM were determined in a TF-FRET mode on a microplate reader. Compared with the fluorescence intensity ratio of a control group (0.1% DMSO), the percentage inhibition rates of the compound at each concentration were calculated, and the IC50 value of the compound was obtained by performing nonlinear regression analysis for logarithmic value of the compound concentration - inhibition rate by GraphPad Prism 5 software, which can be seen in Table 1. Table 1 IC50 data of the compounds of the present invention on TRK enzyme activity inhibition

[2] = biological target: T2, ALK(L1196M, G1202R) (Homo sapiens, UniProt Q9UM73, G1202R/L1196M); assay: HTRF KinEASE-TK kinase activity inhibition assay, ALK(L1196M, G1202R); assay type: biochemical; settings: ATP 25 µM
T2 construct: purchased SignalChem A19-12NG-10
Description: The following method was used to determine the inhibition degrees of the compounds of the present invention on the activities of recombinant human ALK(G1202R) and ALK(L1196M, G1202R) kinases in vitro. In this method, HTRF®KinEASE-TK tyrosine kinase kit (article No. 62TK0PEB) of Cisbio company was used, the principle of the kit was based on time-resolved fluorescence resonance energy transfer (TF-FRET), and the inhibitions of the compounds on the activities of the ALK(G1202R) and ALK(L1196M, G1202R) kinases were reflected by determining a phosphorylation degree of a biotinylated polypeptide substrate mediated by ALK kinase. For detailed experimental operation, please refer to the kit instruction. […]
The experimental flow was briefly described as follows: a test compound was first dissolved in DMSO to prepare a storage solution, and then diluted in gradient with a buffer provided in the kit. […] An ATP Km value concentration of each ALK protein was determined by using an ATP solution diluted in gradient (Sangon Biotech (Shanghai) Co., Ltd., A600311). […] After incubation, fluorescence intensity values of each well at an excitation wavelength of 304 nm, and emission wavelengths of 620 nm and 665 nM were determined in a TF-FRET mode on a microplate reader, and the fluorescence intensity ratio 665/620 of each hole was calculated. […]

T1 sequence (P04629 33-796 G595R): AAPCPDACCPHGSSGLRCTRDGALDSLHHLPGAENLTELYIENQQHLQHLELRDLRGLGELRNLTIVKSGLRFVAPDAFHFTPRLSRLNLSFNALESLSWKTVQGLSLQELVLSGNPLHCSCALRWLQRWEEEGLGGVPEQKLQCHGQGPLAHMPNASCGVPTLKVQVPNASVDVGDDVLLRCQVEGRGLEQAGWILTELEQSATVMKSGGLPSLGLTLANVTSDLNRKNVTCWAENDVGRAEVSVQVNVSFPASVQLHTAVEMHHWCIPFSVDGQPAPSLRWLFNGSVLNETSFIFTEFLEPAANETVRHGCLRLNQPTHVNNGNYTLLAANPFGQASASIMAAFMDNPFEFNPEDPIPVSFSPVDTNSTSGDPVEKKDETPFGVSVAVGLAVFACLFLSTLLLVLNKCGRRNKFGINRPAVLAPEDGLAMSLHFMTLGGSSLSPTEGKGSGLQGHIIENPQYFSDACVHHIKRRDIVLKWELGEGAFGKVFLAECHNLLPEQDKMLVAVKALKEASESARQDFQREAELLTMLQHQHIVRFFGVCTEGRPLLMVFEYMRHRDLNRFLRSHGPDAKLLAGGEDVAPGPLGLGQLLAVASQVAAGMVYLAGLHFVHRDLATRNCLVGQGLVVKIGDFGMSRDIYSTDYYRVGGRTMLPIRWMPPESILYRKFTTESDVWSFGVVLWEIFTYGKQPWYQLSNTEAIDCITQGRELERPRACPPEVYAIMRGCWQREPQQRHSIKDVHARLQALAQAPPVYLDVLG
T2 sequence (Q9UM73 19-1620 L1196M/G1202R): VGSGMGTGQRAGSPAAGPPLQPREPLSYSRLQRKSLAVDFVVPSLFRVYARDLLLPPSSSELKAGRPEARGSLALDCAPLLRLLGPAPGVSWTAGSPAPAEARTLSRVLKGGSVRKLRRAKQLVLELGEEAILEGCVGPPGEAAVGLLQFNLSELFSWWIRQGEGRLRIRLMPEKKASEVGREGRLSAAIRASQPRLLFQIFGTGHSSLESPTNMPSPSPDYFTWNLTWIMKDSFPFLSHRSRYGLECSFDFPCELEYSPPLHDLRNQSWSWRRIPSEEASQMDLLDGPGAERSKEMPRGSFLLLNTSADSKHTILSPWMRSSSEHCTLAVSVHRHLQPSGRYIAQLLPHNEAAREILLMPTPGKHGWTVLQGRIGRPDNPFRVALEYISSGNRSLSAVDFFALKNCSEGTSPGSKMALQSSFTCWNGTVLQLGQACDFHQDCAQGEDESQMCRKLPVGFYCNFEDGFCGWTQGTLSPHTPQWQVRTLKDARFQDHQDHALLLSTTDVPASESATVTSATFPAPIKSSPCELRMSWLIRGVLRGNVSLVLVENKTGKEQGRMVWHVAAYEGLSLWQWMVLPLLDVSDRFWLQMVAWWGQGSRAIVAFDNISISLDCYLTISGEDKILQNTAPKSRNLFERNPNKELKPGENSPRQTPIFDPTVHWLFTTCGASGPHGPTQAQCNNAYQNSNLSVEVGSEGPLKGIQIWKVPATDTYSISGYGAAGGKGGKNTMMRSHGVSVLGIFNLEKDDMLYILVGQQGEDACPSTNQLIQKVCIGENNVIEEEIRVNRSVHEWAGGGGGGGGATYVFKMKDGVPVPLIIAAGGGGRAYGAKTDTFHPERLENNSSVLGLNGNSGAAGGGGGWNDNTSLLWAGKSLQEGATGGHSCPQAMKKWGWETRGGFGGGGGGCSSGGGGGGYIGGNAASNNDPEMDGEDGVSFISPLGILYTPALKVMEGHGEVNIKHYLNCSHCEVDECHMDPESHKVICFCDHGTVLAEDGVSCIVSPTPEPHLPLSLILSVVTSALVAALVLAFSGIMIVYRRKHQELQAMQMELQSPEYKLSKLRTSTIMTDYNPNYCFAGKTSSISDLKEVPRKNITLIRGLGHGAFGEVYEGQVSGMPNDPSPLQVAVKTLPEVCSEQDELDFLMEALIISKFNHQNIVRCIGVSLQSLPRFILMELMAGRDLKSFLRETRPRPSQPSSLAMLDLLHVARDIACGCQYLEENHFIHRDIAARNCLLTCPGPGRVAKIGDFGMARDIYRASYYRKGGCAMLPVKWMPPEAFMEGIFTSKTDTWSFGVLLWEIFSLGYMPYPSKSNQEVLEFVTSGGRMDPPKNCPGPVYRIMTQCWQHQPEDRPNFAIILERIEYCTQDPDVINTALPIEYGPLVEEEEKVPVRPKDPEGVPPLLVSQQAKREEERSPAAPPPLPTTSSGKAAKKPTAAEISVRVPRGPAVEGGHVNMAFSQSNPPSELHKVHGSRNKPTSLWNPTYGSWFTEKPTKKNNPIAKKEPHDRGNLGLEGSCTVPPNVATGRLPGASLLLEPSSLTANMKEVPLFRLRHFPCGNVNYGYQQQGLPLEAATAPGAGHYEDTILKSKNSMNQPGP

IC50 [1] [nM]	IC50 [2] [nM]	SMILES
2.03	20.7	C[C@H]1Nc2ccn3ncc(c3n2)C(=O)NC[C@@]2(C)Cc3cc(F)cc1c3O2 [Example 8, (3R,11R)-6-fluoro-3,11-dimethyl-10-oxa-2,13,17,1 8,21-pentaazapentacyclo[13.5.2.1^8,11.0^4,9.0^18,22]tric osa-1(21),4,6,8,15(22),16,19-heptaen-14-one]
5.4	24.2	C[C@H]1Nc2ccn3nc(N)c(c3n2)C(=O)NC[C@@]2(C)Cc3cc(F)cc1c3O2 [Example 25, (3R,11R)-16-amino-6-fluoro-3,11-dimethyl-10-oxa-2,13,17,18,21-pentaazapentacyclo[13.5.2.1^8,11.0^4,9. 0^18,22]tricosa-1(21),4,6,8,15(22),16,19-heptaen-14-one]
